In article PMC8286815 (Biochemical Journal, 2021):
Like-named read-outs stand apart in the source and are kept apart here.

How the values were obtained:
[1] = biological target: T1, SARS-CoV-2 RdRp (nsp12/nsp7/nsp8) (Severe acute respiratory syndrome coronavirus 2, UniProt P0DTD1); test: FRET-based strand displacement assay (RdRp activity); assay type: biochemical; settings: 100 nM RNA substrate, 300 µM of each NTP
T1 construct: added initiator Met before nsp12 (N); made in house; host or cells: Sf9 insect cells (Spodoptera frugiperda), baculovirus

[2] = system: SARS-CoV-2 in Vero E6 cells; test: Viral inhibition assay (N protein immunofluorescence); assay type: cell-based; settings: for EC50: read-out: EC50 antiviral activity against SARS-CoV-2
[3] = biological target: T1, SARS-CoV-2 RdRp (nsp12/nsp7/nsp8); test: Gel-based polymerisation (primer-extension) assay; assay type: biochemical; settings: compound at 50 µM, 30-min reaction, 300 nM RdRp, native PAGE
[4] = system: influenza A viruses in A549 cells; design: method as in PMID 26711748; settings: different strains, read-out: EC50 suppression of replication of influenza A viruses; cited from earlier work
[5] = system: influenza infection; settings: treated mice; cited from earlier work
[6] = system: SARS-CoV-2 in Vero E6 cells; design: method as in Zeng et al. [46]; settings: same protocol, ref Zeng et al. [46], read-out: EC50 against SARS-CoV-2; cited from earlier work
[7] = system: Vero E6 cells; test: Cell viability in the viral inhibition assay (DRAQ7 staining); settings: DRAQ7 area, concentrations tested up to 300 µM
[8] = IC50 (µM) + 0.01% Triton X-100, 150 nM RdRp, presence of 0.01% Triton X-100
[9] = IC50 (µM) No detergent, 150 nM RdRp, absence of Triton X-100
[10] = Severe acute respiratory syndrome coronavirus 2, Vero C1008, 22 h
[11] = Severe acute respiratory syndrome coronavirus 2, Vero C1008, Vero E6 cells, MOI 0.5 PFU/cell, 22 h, area of viral plaques by N protein staining

Structure (SMILES)	IC50 [1, 8] [µM]	IC50 [1, 9] [µM]	EC50 [2, 10] [µM]	Inhibition of RNA duplex formation [3]	EC50 [2, 11] [µM]	also measured
NC(=O)c1cc[n+](CC2=C(C(=O)O)N3C(=O)[C@@H](NC(=O)[C@@H](c4ccccc4)S(=O)(=O)[O-])[C@H]3SC2)cc1 [Cefsulodin]	49	50	108	partial inhibition		
CC1=NN(c2ccc(C(=O)O)cc2)C(=O)C1=Cc1ccc(-c2cc(C)c(C)cc2[N+](=O)[O-])o1 [C646]	7.8	6.1		inhibited RNA duplex formation almost completely	19	EC50 [4]: 16 µM; Toxicity in murine models of influenza infection [5]: no associated toxicity; Viral replication in murine models of influenza infection [5]: significant reduction in viral replication
O=C1C(=O)N(Cc2ccc(Cl)c(Cl)c2)c2ccccc21 [MDK-83190]			81			
OC[C@@H](O)[C@H]1NC[C@@H](O)[C@H]1O [1,4-Dideoxy-1,4-imino-D-mannitol]						IC50 (µM) No detergent ([1]; 150 nM RdRp, absence of Triton X-100): no cl ear i nhi bi ti; IC50 (µM) + 0.01% Triton X-100 ([1]; 150 nM RdRp, presence of 0.01% Triton X-100): no cl ear i nhi bi ti
Cc1ccc(C(=O)Nc2ccc(S(=O)(=O)O)c3cc(S(=O)(=O)O)cc(S(=O)(=O)O)c23)cc1NC(=O)c1cccc(NC(=O)Nc2cccc(C(=O)Nc3cc(C(=O)Nc4ccc(S(=O)(=O)O)c5cc(S(=O)(=O)O)cc(S(=O)(=O)O)c45)ccc3C)c2)c1 [Suramin]	0.78	0.43		inhibited RNA duplex formation almost completely		EC50 [6]: 9.9 µM
CCC(CC)COC(=O)[C@H](C)N[P@](=O)(OC[C@H]1O[C@@](C#N)(c2ccc3c(N)ncnn23)[C@H](O)[C@@H]1O)Oc1ccccc1 [Remdesivir]					1.8	inhibition at 0.5 µM ([2]; Severe acute respiratory syndrome coronavirus 2, Vero C1008, 0.5 µM, Vero E6 cells, read-out: Inhibition of viral infection as a single agent): < 10%
Nc1c(C(=O)O)c2nc3c(C(=O)O)cccc3oc-2cc1=O [Cinnabarinic Acid]	> 100	> 100				
CC(C)C(C(=O)O)N1C(=O)/C(=C/c2ccc(Br)cc2)SC1=S (stereo not shown) [BH3I-1]	13	14		inhibited RNA duplex formation almost completely	77	
O=C(O)c1ccc(-c2c[nH]c3ncc(-c4ccccc4)cc23)cc1C1CCCC1 [GSK-650394]	29	31	7.6	partial inhibition		Concentration at which cytotoxicity was seen [7]: 300 µM
